The term IC50 denotes the concentration at which inhibition is half-maximal.

Consider 25 compounds from ChEMBL document CHEMBL5331106, “Investigation into the Mechanism of Action of the Tuberculosis Drug Candidate SQ109 and Its Metabolites and Analogues in Mycobacteria” (J Med Chem, 2023).

The subject of experiment [1] is Mycobacterium tuberculosis. The experiment is described as follows: Antimycobacterial activity against Mycobacterium tuberculosis HN878 assessed as inhibition of mycobacterial growth incubated for 5 days in presence of 50 uM undecaprenyl phosphate. It counts as functional, organism-based. Conditions: HN878, 120 h.
A further experiment has as its system Cell membrane. The experiment is described as follows: Uncoupling activity in Escherichia coli inverted membrane vesicles assessed as collapse of pH gradient by measuring increase in ACMA fluorescence intensity by fluorometric analysis. It counts as subcellular.
The test system of experiment [2] is Mycolicibacterium smegmatis. The experiment is described as follows: Antimycobacterial activity against Mycobacterium smegmatis assessed as inhibition of mycobacterial growth incubated for 48 hrs. It counts as functional, organism-based.
In experiment [3] the target is T1, Undecaprenyl-diphosphatase (Escherichia coli (strain K12), UniProt P60932).
T1 sequence (P60932 whole entry): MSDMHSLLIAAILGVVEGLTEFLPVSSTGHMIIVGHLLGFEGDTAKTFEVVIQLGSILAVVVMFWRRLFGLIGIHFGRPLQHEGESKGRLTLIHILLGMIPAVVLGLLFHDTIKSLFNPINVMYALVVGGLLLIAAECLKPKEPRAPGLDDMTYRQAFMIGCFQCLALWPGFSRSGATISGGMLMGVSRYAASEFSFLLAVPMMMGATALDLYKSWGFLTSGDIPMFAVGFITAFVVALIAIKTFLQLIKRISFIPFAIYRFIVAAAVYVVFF
The experiment is described as follows: Inhibition of UppP in Escherichia coli using FPP as substrate pretreated for 20 mins followed by FPP addition and measured after 60 mins by malachite green based assay.

Experiment [4] relates to Mycolicibacterium smegmatis. The experiment is described as follows: Antimycobacterial activity against Mycobacterium smegmatis assessed as inhibition of mycobacterial growth incubated for 48 hrs in presence of 50 uM undecaprenyl phosphate. It counts as functional, organism-based.
Experiment [5] concerns Mycolicibacterium smegmatis. The experiment is described as follows: Rescue fold, ratio of IC50 for antimycobacterial activity against Mycobacterium smegmatis in presence of 50 uM undecaprenyl phosphate to IC50 for antimycobacterial activity against Mycobacterium smegmatis. It counts as functional.
For experiment [6], the system named is Mycobacterium tuberculosis. The experiment is described as follows: Antimycobacterial activity against Mycobacterium tuberculosis HN878 assessed as inhibition of mycobacterial growth incubated for 5 days. Format: functional, organism-based. Conditions: HN878, 120 h.
Experiment [7] deals with Mycolicibacterium smegmatis. The experiment is described as follows: Antimycobacterial activity against Mycobacterium smegmatis assessed as inhibition of mycobacterial growth incubated for 48 hrs in presence of 50 uM menaquinone-4. It counts as functional, organism-based.
Experiment [8] has as its system Mycolicibacterium smegmatis. The experiment is described as follows: Rescue fold, ratio of IC50 for antimycobacterial activity against Mycobacterium smegmatis in presence of 100 uM menaquinone-7 to IC50 for antimycobacterial activity against Mycobacterium smegmatis. Format: functional.
Experiment [9] has as its system Mycolicibacterium smegmatis. The experiment is described as follows: Rescue fold, ratio of IC50 for antimycobacterial activity against Mycobacterium smegmatis in presence of 100 uM menaquinone-4 to IC50 for antimycobacterial activity against Mycobacterium smegmatis. Format: functional.
Experiment [10] has as its system Mycolicibacterium smegmatis. The experiment is described as follows: Antimycobacterial activity against Mycobacterium smegmatis assessed as inhibition of mycobacterial growth incubated for 48 hrs in presence of 50 uM Upp. It counts as functional, organism-based.

With `CC(C)CCCC(C)CCNCCNC1C2CC3CC(C2)CC1C3` (stereo not drawn), the IC50 in experiment [1] worked out at 16 µM; in the experiment with Cell membrane it was 5.2 µM; in experiment [2], 9.3 µM; in experiment [3], 15 µM; in [4], 9.1 µM; in experiment [6], 1.7 µM. For the same compound, the “Ratio IC50” value in experiment [5] turned out to be 1.
As for `NC1C2CC3CC(C2)CC1C3` (stereo not drawn), the IC50 with Cell membrane is over 1000 µM; in experiment [2], over 500 µM; in experiment [6], over 25 µM.
As for `CC(C)=CCC/C(C)=C/CNCCNC1C2CC3CC1CC(O)(C3)C2` (stereo not drawn), the concentration for half-maximal inhibition (IC50) in the experiment with Cell membrane was 18 µM; in experiment [2], 42 µM; in experiment [4], 57 µM; in [6], over 25 µM. Besides, the “Ratio IC50” value in experiment [5] is listed as 1.4.
The corresponding values for `CC(C)=CCC/C(C)=C/CNCCNC1C2CC3CC(C2)CC1(O)C3` (stereo not drawn) are 9.1 µM, 5 µM, 15 µM, 0.81 µM and 3.
In the case of `CC(C)=CCC/C(C)=C/C(=O)O`, the IC50 in the experiment on Cell membrane is over 1000 µM; in experiment [2], over 500 µM; in [6] it was over 25 µM.
Turning to `CCCCc1ccc(-c2nc(C)c(/C(C)=N/NC(=N)N)s2)cc1`, the values for the IC50 in experiment [2], in [4] and in [7] were 11 µM, 89 µM and 9.8 µM, respectively. For the same compound, in experiment [5], the “Ratio IC50” value came to 7.8.
For `O=C1C2CC3CC(C2)CC1C3`, the IC50 with Cell membrane is over 1000 µM; in experiment [2] it was over 500 µM; in [6], over 25 µM.
On to `CC(C)=CCC/C(C)=C/CNCCOC1C2CC3CC(C2)CC1C3` (stereo not drawn), for which the IC50 was found to be 0.54 µM in experiment [1]; 1.2 µM in the experiment on Cell membrane; 1.3 µM in experiment [2]; 21 µM in [3]; 11 µM in [4]; 0.07 µM in experiment [6]. In addition, in [5], the “Ratio IC50” value came out at 9.
`CC(C)=CCC/C(C)=C/COCCNC1C2CC3CC(C2)CC1C3` (stereo not drawn): the IC50 in experiment [1] came out at 2.8 µM; in the experiment on Cell membrane, 55 µM; in experiment [2], 7.3 µM; in experiment [3], 91 µM; in [4] it was 9.8 µM; in [6] it was 1.3 µM. The “Ratio IC50” value in [5] worked out at 1.3.
For `CC(C)=CCCC1(C)CC=NO1` (stereo not drawn), the results for the IC50 (with Cell membrane; in [2]; in experiment [6]) were over 1000 µM, over 500 µM and over 25 µM, respectively.
`CC(C)=CCC/C(C)=C/CCNCCNC1C2CC3CC(C2)CC1C3` (stereo not drawn): the IC50 in experiment [1] is 8 µM; in the experiment with Cell membrane, 1.9 µM; in [2], 2.7 µM; in [3] it was 16 µM; in experiment [4], 48 µM; in experiment [6], 0.82 µM. Besides, the figures for the “Ratio IC50” value in experiment [8], in experiment [9] and in experiment [5] were 2, 2 and 18, respectively.
Turning to `CC(C)=CCC/C(C)=C/CNCCNC1[C@H]2C[C@@H]3C[C@H](C2)[C@@H](O)[C@H]1C3` (stereo partly drawn), the IC50 in the experiment with Cell membrane is 12 µM; in [2], 11 µM; in [4], 24 µM; in [6] it was 4.2 µM. Moreover, the “Ratio IC50” value in experiment [5] is recorded as 2.2.
For `CC(C)=CCC/C(C)=C/C(C)(C)NCCNC1C2CC3CC(C2)CC1C3` (stereo not drawn), the IC50 in experiment [1] amounted to 8.7 µM; in the experiment with Cell membrane, 1.1 µM; in [2], 1.9 µM; in [3], 37 µM; in experiment [4], 43 µM; in experiment [6] it was 0.61 µM. The “Ratio IC50” value in [5] is given as 23.
Consider `CC(C)=CCC/C(C)=C/CN`, for which the results for the IC50 (in the experiment on Cell membrane; in experiment [2]; in experiment [6]) were 307 µM, over 500 µM and over 25 µM, respectively.
Consider `c1ccc(CCNC2CCCc3c2[nH]c2ccc(C4CCCCC4)cc32)cc1` (stereo not drawn), for which the concentration for half-maximal inhibition (IC50) turned out to be 14 µM in experiment [10], 14 µM in experiment [2] and 56 µM in [4].
Regarding `CC(C)=CCC/C(C)=C/CCNCCNC1C2CC3CC1CC(F)(C3)C2` (stereo not drawn), the IC50 in [1] was 8.8 µM; in the experiment on Cell membrane, 5.5 µM; in [2], 8 µM; in experiment [3], 153 µM; in [4], 38 µM; in experiment [6] it was 1.5 µM. Moreover, the “Ratio IC50” value in experiment [5] worked out at 4.8.
As for `C/C(=C\CNCCNC1C2CC3CC(C2)CC1C3)CCC(=O)C(C)C` (stereo not drawn), the IC50 with Cell membrane is 15 µM; in experiment [2], 26 µM; in experiment [4] it was 63 µM; in experiment [6], 14 µM. For the same compound, the “Ratio IC50” value in experiment [5] turned out to be 2.4.
Consider `ON=C1C2CC3CC(C2)CC1C3`, for which the IC50 in the experiment with Cell membrane was over 1000 µM; in experiment [2], over 500 µM; in experiment [6], over 25 µM.
Take `CC(C)=CCC/C(C)=C/CNCCNC1C2CC3CC1CC(C2)C3O` (stereo not drawn): the IC50 with Cell membrane was 19 µM; in experiment [2], 42 µM; in experiment [4] it was 67 µM; in experiment [6], over 25 µM. The “Ratio IC50” value in experiment [5] was 1.6.
In the case of `CCCCCCCCCCCNCCNC1C2CC3CC(C2)CC1C3` (stereo not drawn), the IC50 in [1] was 24 µM; in the experiment on Cell membrane, 0.87 µM; in experiment [2], 3.9 µM; in experiment [3], 18 µM; in experiment [4], 8.9 µM; in experiment [6], 1.9 µM. For the same compound, the “Ratio IC50” value in experiment [5] turned out to be 2.3.
In the case of `NCCNC1C2CC3CC(C2)CC1C3` (stereo not drawn), the IC50 was 130 µM in the experiment on Cell membrane, over 500 µM in [2] and over 25 µM in experiment [6].
The corresponding values for `CC(C)=CCC/C(C)=C/CNCCN` are 77 µM, over 500 µM and over 25 µM.
Take `CC(C)=CCC/C(C)=C/C=N\O`: the IC50 in the experiment with Cell membrane was over 1000 µM; in [2], over 500 µM; in [6], over 25 µM.
Turning to `C/C(=C\CC/C(C)=C/CNCCNC1C2CC3CC(C2)CC1C3)CO` (stereo not drawn), the IC50 in the experiment on Cell membrane is 17 µM; in experiment [2] it was 20 µM; in experiment [4] it was 24 µM; in [6], over 16 µM. The “Ratio IC50” value in experiment [5] was found to be 1.2.
Regarding `CC(C)=CCC/C(C)=C/C=O` [CITRAL], the 50% inhibitory concentration (IC50) is over 1000 µM in the experiment on Cell membrane, over 500 µM in experiment [2] and over 25 µM in experiment [6].
